Experimental data: patent US11219215B2, “Herbicidal composition comprising cinmethylin and specific inhibitors of protoporphyrinogen oxidase” (BASF Agro B.V., priority 2015, dated 2022)
Values joined by “and” are separate entries in the source; they are usually repeats but may differ in a detail not shown here. Equal entries are not always repeated.

Experiments:
Type in all cases: in vivo
Alopecurus myosuroides = experiment: Greenhouse preemergence herbicidal activity, ALOMY; conditions: 20 DAT
Procedure: (§1) The containers were irrigated gently to promote germination and growth and subsequently covered with transparent plastic hoods until the plants had rooted.
(§2) The plants have been cultivated due to their individual requirements at 10-25° C. and 20-35° C.
(§3) The plants were irrigated due to their necessity.
(§4) The racemic mixture (±)-2-exo-(2-Methylbenzyloxy)-1-methyl-4-isopropyl-7-oxabicyclo[2.2.1]heptane was used as herbicide A and formulated as emulsifiable concentrates with an active ingredient concentration of 50g/I, 100 g/I or 750 g/I respectively.
(§5) Flumioxazin (herbicide B.1) was used as a wettable powder (WP) formulation having an active ingredient concentration of 50%.
(§6) Sulfentrazone (herbicide B.2) was used as a suspension concentrate (SC) having an active ingredient concentration of 480 g/l.
(§7) In the following experiments, the herbicidal activity for the individual herbicidal compositions (solo and mixture applications) was assessed 20 days after treatment (DAT).
(§8) The evaluation for the damage on undesired weeds caused by the chemical compositions was carried out using a scale from 0 to 100%, compared to the untreated control plants. Here, 0 means no damage and 100 means complete destruction of the plants.
(§9) E=X+Y−(X·Y/100) where X=effect in percent using herbicide A at an application rate a; • Y=effect in percent using herbicide B at application rate b; • E=expected effect (in %) of herbicide A+herbicide B at application rates a+b.
(§10) The value E corresponds to the effect (plant damage or injury) which is to be expected if the activity of the individual compounds is additive. If the observed effect is higher than the value E calculated according to the Colby equation, a synergistic effect is present.

Setaria viridis [1] = experiment: Greenhouse preemergence herbicidal activity, SETVI; conditions: 20 DAT
Procedure: as §1, §2, §3, §4, §5, §6, §7, §8, §9, §10

Sorghum halepense = experiment: Greenhouse preemergence herbicidal activity, SORHA; conditions: 20 DAT
Procedure: as §1, §2, §3, §4, §5, §6, §7, §8, §9, §10

Anthemis arvensis = experiment: Greenhouse preemergence herbicidal activity, ANTAR; conditions: 20 DAT
Procedure: as §1, §2, §3, §4, §5, §6, §7, §8, §9, §10

Galium aparine = experiment: Greenhouse preemergence herbicidal activity, GALAP; conditions: 20 DAT
Procedure: as §1, §2, §3, §4, §5, §6, §7, §8, §9, §10

Abutilon theophrasti = experiment: Greenhouse preemergence herbicidal activity, ABUTH; conditions: 20 DAT
Procedure: as §1, §2, §3, §4, §5, §6, §7, §8, §9, §10

Polygonum convolvulus = experiment: Greenhouse preemergence herbicidal activity, POLCO; conditions: 20 DAT
Procedure: as §1, §2, §3, §4, §5, §6, §7, §8, §9, §10

Geranium dissectum [2] = experiment: Greenhouse preemergence herbicidal activity, GERDI; conditions: 20 DAT
Procedure: as §1, §2, §3, §4, §5, §6, §7, §8, §9, §10

Lolium multiflorum = experiment: Greenhouse preemergence herbicidal activity, LOLMU; conditions: 20 DAT
Procedure: as §1, §2, §3, §4, §5, §6, §7, §8, §9, §10

Stellaria media = experiment: Greenhouse preemergence herbicidal activity, STEME; conditions: 20 DAT
Procedure: as §1, §2, §3, §4, §5, §6, §7, §8, §9, §10

Avena fatua = experiment: Greenhouse preemergence herbicidal activity, AVEFA; conditions: 20 DAT
Procedure: as §1, §2, §3, §4, §5, §6
(§11) In the following experiments, the herbicidal activity for the individual herbicidal compositions (solo and mixture applications) was assessed 20 days after treatment (DAT). […]
as §10

Geranium dissectum [3] = experiment: Greenhouse postemergence herbicidal activity, GERDI; conditions: herbicide A solo 62.5 g ai/ha, 20 DAT
Procedure: (§12) For the post emergence treatment, the plants were first grown to the 2 leaf station (GS 12). Here, the herbicidal compositions were suspended or emulsified in water as distribution medium and sprayed using finely distributing nozzles.
as §2, §3, §4, §5, §6, §11, §10

Setaria viridis [4] = experiment: Greenhouse postemergence herbicidal activity, SETVI; conditions: 20 DAT
Procedure: as §12, §2, §3, §4, §5, §6, §11, §10

Digitaria sanguinalis = experiment: Greenhouse postemergence herbicidal activity, DIGSA; conditions: 20 DAT
Procedure: as §12, §2, §3, §4, §5, §6, §7, §8, §9, §10

Chenopodium album = experiment: Greenhouse preemergence herbicidal activity, CHEAL; conditions: 20 DAT
Procedure: as §1, §2, §3, §4, §5, §6, §11, §10

[5] = sulfentrazone solo 12.5 g ai/ha

Question: What does the source list for Cc1nn(-c2cc(NS(C)(=O)=O)c(Cl)cc2Cl)c(=O)n1C(F)F [sulfentrazone, 2′,4′-dichloro-5′-(4-difluoromethyl-4,5-dihydro-3-methyl-5-oxo-1H-1,2,4-triazol-1-yl)methanesulfonanilide]?
Answer: herbicidal activity (Alopecurus myosuroides; sulfentrazone solo 25 g ai/ha): 35%; herbicidal activity (Setaria viridis [1]; [5]): 0%; herbicidal activity (Setaria viridis [1]; sulfentrazone solo 25 g ai/ha): 65%; herbicidal activity (Sorghum halepense; [5]): 0%; herbicidal activity (Sorghum halepense; sulfentrazone solo 100 g ai/ha): 80%; herbicidal activity (Anthemis arvensis; [5]): 40%; herbicidal activity (Anthemis arvensis; sulfentrazone solo 25 g ai/ha): 85%; herbicidal activity (Galium aparine; sulfentrazone solo 100 g ai/ha): 98%; herbicidal activity (Abutilon theophrasti; sulfentrazone solo 25 g ai/ha): 65%; herbicidal activity (Abutilon theophrasti; sulfentrazone solo 50 g ai/ha): 65%; herbicidal activity (Polygonum convolvulus; [5]): 20%; herbicidal activity (Polygonum convolvulus; sulfentrazone solo 25 g ai/ha): 90%; herbicidal activity (Geranium dissectum [2]; sulfentrazone solo 25 g ai/ha): 50%; herbicidal activity (Lolium multiflorum; [5]): 0%; herbicidal activity (Lolium multiflorum; sulfentrazone solo 100 g ai/ha): 80%; herbicidal activity (Stellaria media; [5]): 0%; herbicidal activity (Stellaria media; sulfentrazone solo 25 g ai/ha): 20%; herbicidal activity (Stellaria media; sulfentrazone solo 50 g ai/ha): 40%

Question: How did the herbicidal activity (Avena fatua; herbicide A solo 62.5 g ai/ha) turn out when Cc1ccccc1CO[C@@H]1C[C@]2(C(C)C)CC[C@@]1(C)O2 (racemic) [herbicide A, (±)-2-exo-(2-Methylbenzyloxy)-1-methyl-4-isopropyl-7-oxabicyclo[2.2.1]heptane] was run?
Answer: Its herbicidal activity is 40%.

Question: What about the herbicidal activity (Avena fatua; herbicide A solo 250 g ai/ha) of the same molecule?
Answer: Its herbicidal activity is 65%.

Question: And the herbicidal activity (Alopecurus myosuroides; herbicide A solo 31.25 g ai/ha)?
Answer: The herbicidal activity was 95%.

Question: And the herbicidal activity (Alopecurus myosuroides; herbicide A solo 62.5 g ai/ha)?
Answer: Its herbicidal activity is 98%.

Question: What about the herbicidal activity (Setaria viridis [1]; herbicide A solo 25 g ai/ha) of the same molecule?
Answer: The herbicidal activity was 75%.

Question: And the herbicidal activity (Setaria viridis [1]; herbicide A solo 31.25 g ai/ha)?
Answer: The herbicidal activity was 95%.

Question: And the herbicidal activity (Sorghum halepense; herbicide A solo 25 g ai/ha)?
Answer: Its herbicidal activity is 90%.

Question: What about the herbicidal activity (Sorghum halepense; herbicide A solo 62.5 g ai/ha) of the same molecule?
Answer: Its herbicidal activity is 90%.

Question: And the herbicidal activity (Sorghum halepense; herbicide A solo 125 g ai/ha)?
Answer: Its herbicidal activity is 95%.

Question: And the herbicidal activity (Sorghum halepense; herbicide A solo 250 g ai/ha)?
Answer: The herbicidal activity was 98%.

Question: And the herbicidal activity (Anthemis arvensis; herbicide A solo 25 g ai/ha)?
Answer: Its herbicidal activity is 0%.

Question: What about the herbicidal activity (Anthemis arvensis; herbicide A solo 31.25 g ai/ha) of the same molecule?
Answer: The herbicidal activity was 0%.

Question: And the herbicidal activity (Anthemis arvensis; herbicide A solo 62.5 g ai/ha)?
Answer: The herbicidal activity was 0%.

Question: What about the herbicidal activity (Anthemis arvensis; herbicide A solo 125 g ai/ha) of the same molecule?
Answer: The herbicidal activity was 20%.

Question: What about the herbicidal activity (Geranium dissectum [3]) of the same molecule?
Answer: The herbicidal activity was 75%.

Question: And the herbicidal activity (Galium aparine; herbicide A solo 31.25 g ai/ha)?
Answer: The herbicidal activity was 30%.

Question: And the herbicidal activity (Galium aparine; herbicide A solo 62.5 g ai/ha)?
Answer: The herbicidal activity was 0%.

Question: What about the herbicidal activity (Galium aparine; herbicide A solo 125 g ai/ha) of the same molecule?
Answer: Its herbicidal activity is 0%.

Question: What about the herbicidal activity (Galium aparine; herbicide A solo 200 g ai/ha) of the same molecule?
Answer: Its herbicidal activity is 30%.

Question: What about the herbicidal activity (Galium aparine; herbicide A solo 500 g ai/ha) of the same molecule?
Answer: The herbicidal activity was 70%.

Question: And the herbicidal activity (Abutilon theophrasti; herbicide A solo 50 g ai/ha)?
Answer: Its herbicidal activity is 0%.

Question: And the herbicidal activity (Abutilon theophrasti; herbicide A solo 100 g ai/ha)?
Answer: The herbicidal activity was 0%.

Question: And the herbicidal activity (Setaria viridis [4]; herbicide A solo 62.5 g ai/ha)?
Answer: The herbicidal activity was 40%.

Question: And the herbicidal activity (Setaria viridis [4]; herbicide A solo 125 g ai/ha)?
Answer: The herbicidal activity was 60%.

Question: And the herbicidal activity (Digitaria sanguinalis; herbicide A solo 62.5 g ai/ha)?
Answer: Its herbicidal activity is 60%.

Question: What about the herbicidal activity (Digitaria sanguinalis; herbicide A solo 125 g ai/ha) of the same molecule?
Answer: Its herbicidal activity is 65%.

Question: And the herbicidal activity (Digitaria sanguinalis; herbicide A solo 250 g ai/ha)?
Answer: Its herbicidal activity is 80%.

Question: And the herbicidal activity (Polygonum convolvulus; herbicide A solo 25 g ai/ha)?
Answer: Its herbicidal activity is 0%.

Question: And the herbicidal activity (Polygonum convolvulus; herbicide A solo 50 g ai/ha)?
Answer: Its herbicidal activity is 0%.

Question: And the herbicidal activity (Polygonum convolvulus; herbicide A solo 62.5 g ai/ha)?
Answer: Its herbicidal activity is 0%.

Question: What about the herbicidal activity (Polygonum convolvulus; herbicide A solo 250 g ai/ha) of the same molecule?
Answer: Its herbicidal activity is 45%.

Question: And the herbicidal activity (Geranium dissectum [2]; herbicide A solo 50 g ai/ha)?
Answer: The herbicidal activity was 50%.

Question: And the herbicidal activity (Geranium dissectum [2]; herbicide A solo 62.5 g ai/ha)?
Answer: Its herbicidal activity is 70% and 80%.

Question: And the herbicidal activity (Geranium dissectum [2]; herbicide A solo 100 g ai/ha)?
Answer: The herbicidal activity was 50%.

Question: What about the herbicidal activity (Geranium dissectum [2]; herbicide A solo 125 g ai/ha) of the same molecule?
Answer: Its herbicidal activity is 70%.

Question: What about the herbicidal activity (Geranium dissectum [2]; herbicide A solo 250 g ai/ha) of the same molecule?
Answer: The herbicidal activity was 70%.

Question: And the herbicidal activity (Chenopodium album; herbicide A solo 62.5 g ai/ha)?
Answer: The herbicidal activity was 45%.

Question: And the herbicidal activity (Chenopodium album; herbicide A solo 125 g ai/ha)?
Answer: The herbicidal activity was 60%.

Question: What about the herbicidal activity (Lolium multiflorum; herbicide A solo 25 g ai/ha) of the same molecule?
Answer: Its herbicidal activity is 50%.

Question: What about the herbicidal activity (Lolium multiflorum; herbicide A solo 31.25 g ai/ha) of the same molecule?
Answer: The herbicidal activity was 75%.

Question: What about the herbicidal activity (Lolium multiflorum; herbicide A solo 62.5 g ai/ha) of the same molecule?
Answer: Its herbicidal activity is 85% and 90%.

Question: And the herbicidal activity (Lolium multiflorum; herbicide A solo 125 g ai/ha)?
Answer: Its herbicidal activity is 90%.

Question: What about the herbicidal activity (Lolium multiflorum; herbicide A solo 500 g ai/ha) of the same molecule?
Answer: Its herbicidal activity is 95%.

Question: What about the herbicidal activity (Stellaria media; herbicide A solo 25 g ai/ha) of the same molecule?
Answer: The herbicidal activity was 20%.

Question: And the herbicidal activity (Stellaria media; herbicide A solo 50 g ai/ha)?
Answer: The herbicidal activity was 20%.

Question: And the herbicidal activity (Stellaria media; herbicide A solo 62.5 g ai/ha)?
Answer: The herbicidal activity was 45%.
